Details of series [1]: method as in PMID 15608138. Particulars: rats or P-gp-knockout mice; cited from earlier work.
In series [2] the target is T1, human BCRP (Homo sapiens, UniProt Q9UNQ0).
T1 sequence (Q9UNQ0 1-655): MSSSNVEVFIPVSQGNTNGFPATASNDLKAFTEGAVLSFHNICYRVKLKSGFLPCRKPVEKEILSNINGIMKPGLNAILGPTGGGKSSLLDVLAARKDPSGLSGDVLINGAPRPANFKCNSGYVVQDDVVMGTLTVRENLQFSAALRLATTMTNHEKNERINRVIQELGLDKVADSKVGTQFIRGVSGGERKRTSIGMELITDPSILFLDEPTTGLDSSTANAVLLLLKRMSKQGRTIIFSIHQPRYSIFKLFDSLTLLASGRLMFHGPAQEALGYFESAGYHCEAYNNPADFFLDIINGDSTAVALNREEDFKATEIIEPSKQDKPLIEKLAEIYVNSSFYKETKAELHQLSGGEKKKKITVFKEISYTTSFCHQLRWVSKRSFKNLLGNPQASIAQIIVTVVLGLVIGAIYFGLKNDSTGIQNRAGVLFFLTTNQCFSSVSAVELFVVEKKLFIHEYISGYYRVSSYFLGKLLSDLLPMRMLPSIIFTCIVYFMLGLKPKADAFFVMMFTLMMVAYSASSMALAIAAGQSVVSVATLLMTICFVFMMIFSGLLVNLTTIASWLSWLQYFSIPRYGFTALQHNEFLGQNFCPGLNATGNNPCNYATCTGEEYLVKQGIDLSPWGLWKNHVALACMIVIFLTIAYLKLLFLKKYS
On the set-up: expressed in transfected cells; host or cells: MDCKII (Madin-Darby canine kidney II) cells; method as in PMID 15608138. Particulars: cited from earlier work.

The next series concerns mouse BCRP. On the set-up: method as in PMID 15608138. To be noted: cited from earlier work.
The test system of series [3] is HeLa cells. Put plainly: FACS cellular accumulation of mitoxantrone (flow cytometry). The class given is cell-based, human. Particulars: for percentage of cells with a significant uptake of MX, higher than at 2 h of treatment with MX alone: 1 μM MX alone. The procedure:
The cellular accumulation of quercetin was measured by FACSCalibur flow cytometry (Becton Dickinson, San Jose, CA, USA). For FACScan analysis, 2 × 10^5 HeLa cells/well were seeded into 6-well cell culture plates on the day before the experiment. On the following day, cells were treated with vehicle or quercetin and 1 μM MX. A time course experiment was conducted on HeLa cells following treatment with quercetin (1 and 100 μM) for 2, 4, and 6 h. After treatment, the cells were harvested by trypsinization and transferred to a fluorescence-activated cell sorting (FACS) tube, pelleted by centrifugation (1500 rpm, 5 min), and then resuspended in 200 μL of PBS. Flow cytometry analysis was performed using red fluorescence. A minimum of 10,000 cells were acquired per sample.

In series [4] the test system is HeLa cells. Briefly: Cytotoxicity assay (CCK-8) of mitoxantrone with or without BCRP inhibitor. The class given is cell-based, human. To be noted: for IC50: 24 h, CCK-8. The procedure:
Dojindo Molecular Technologies, Kumamoto, Japan) following the manufacturer’s instructions. HeLa cells (at a density of 1 × 10^4 cells per well) were seeded and cultured overnight in 96-well plates. […] The absorbance was measured at a wavelength of 450 nm using a microplate reader (BioTeK, Highland Park, WI, USA).

Series [5] has as its target T1, human BCRP. To be noted: read-out: Km value for prazosin; BCRP-mediated transport; cited from earlier work.
Series [6] deals with BCRP. Also on record: method as in PMID 21354800. Particulars: MDCKII/BCRP cells; read-out: IC50, Hoechst 33342 accumulation; cited from earlier work.
The target of series [7] is T1, human BCRP. Briefly: Bi-directional transport of prazosin in MDCKII/BCRP cells. The class given is cell-based. On the set-up: expressed in transfected cells; host or cells: MDCKII (Madin-Darby canine kidney II) cells. How it is done:
At the end of the incubation, aliquots (300 μL for the apical chamber and 500 μL for the basolateral chamber) of the incubation mixture were collected from the donor and receiver chambers and subjected to LC-MS/MS assays. […] Briefly, an aliquot (50 μL) of a sample was vortex-mixed with an acetonitrile solution containing glipizide (300 ng/mL, internal standard); this was followed by centrifugation (16,100 × g for 5 min at 4 °C). An aliquot (5 μL) of the supernatant was directly injected into the LC-MS/MS system. […] For the internal standard glipizide, the transition m/z 445.[…]/z 320.9 was used. […] The efflux ratio (ER) was calculated by dividing the B-to-A apparent permeability coefficient (Papp, B-to-A) by the A-to-B apparent permeability coefficient (Papp, A-to-B). In the inhibition studies, the percentage of the control efflux ratio (%ER) was also calculated by dividing the value for ER in the presence of the inhibitor by that in the absence of the inhibitor (i.e., in the control).

Series [8] concerns BCRP. On the set-up: method as in PMID 21354800. Particulars: MCF-7/MX cells; read-out: IC50, Hoechst 33342 accumulation; cited from earlier work.
Details of series [9]: method as in PMID 15948033. Particulars: 10 mg/kg oral administration to rats; cited from earlier work.
The nature of the next series: in vivo. Particulars: rat. On the set-up: species or system rats. The procedure:
To determine whether quercetin affects the intestinal efflux mediated by BCRP, we divided the male rats into two groups: A sulfasalazine (a substrate of BCRP) control group and a quercetin pretreatment plus sulfasalazine group (n = 4, each). Considering the similar expression levels of intestinal BCRP between male and female rats, male rats were used in this study. Briefly, overnight fasted male SD rats were anesthetized by intramuscular administration of 50 mg/kg tiletamine HCl/zolazepam HCl (Zoletil®) (Vibrac, TX, USA) and 10 mg/kg xylazine HCl (Rompun®, Bayer, Puteaux, France). While the rats were anesthetized, the femoral artery (for blood sampling) and vein (for supplementing body fluids) were catheterized using polyethylene tubing (PE 50; Clay Adams, Parsippany, NJ, USA). Upon recovery from anesthesia (i.e., after 4 h), quercetin was administered by oral gavage at 10 mg/kg (or 0 mg/kg in the case of the sulfasalazine control group; DMSO/polyethylene glycol 400/saline [1:4:5 (v/v/v)]). The pretreatment dose of quercetin was determined based on the compound solubility in the dosing vehicle and the likely daily dose of human dietary supplement. […] Immediately after each blood collection, an identical volume of saline was intravenously provided to the animal to compensate for fluid loss. To prevent blood clotting during blood collection, the cannula was filled with 25 IU/mL heparinized saline. The plasma fraction was separated from the blood samples by centrifugation (16,100 × g for 5 min at 4 °C) and stored at -80 °C until the LC-MS/MS assay. […] Briefly, an aliquot (50 μL) of a sample was vortex-mixed with an acetonitrile solution containing glipizide (300 ng/mL, internal standard); this was followed by centrifugation (16,100 × g for 5 min at 4 °C). An aliquot (5 μL) of the supernatant was directly injected into the LC-MS/MS system. […] For the internal standard glipizide, the transition m/z 445.[…]/z 320.9 was used. […] Standard non-compartmental pharmacokinetic analysis was carried out using WinNonlin Professional 5.0.1 software (Pharsight, Cary, NC, USA) to calculate the pharmacokinetic parameters, including the peak concentration (Cmax), time of the peak concentration (tmax), elimination half-life (t1/2), area under the plasma concentration-time curve from time zero to the last sampling point, 8 h (AUC8h), and elimination clearance (CL/F).

On the set-up of series [10]: method as in PMID 22711747. To be noted: BCRP-knockout rats, oral; cited from earlier work.

The values that follow come from publication PMC7285070, “Quercetin Is a Flavonoid Breast Cancer Resistance Protein Inhibitor with an Impact on the Oral Pharmacokinetics of Sulfasalazine in Rats” (Pharmaceutics, 2020).

“And” between values parts separate entries of the source, which are not always exact repeats. Identical values can stand only once. Like-named read-outs stand apart in the source and are kept apart here.

Regarding `O=c1cc(-c2ccccc2)oc2c1ccc1ccccc12` [7,8-benzoflavone], the “effect of coadministered flavonoid on the pharmacokinetics of topotecan” value in series [1] is “no significant effects”. Besides, at human BCRP [2], the “inhibition of human BCRP” value is given as “potent inhibitors”. Also, the “inhibition of mouse BCRP” value with mouse BCRP was “weak inhibitors”.

On to `COc1ccc2c3c([nH]c2c1)[C@H](CC(C)C)N1C(=O)[C@H](CCC(=O)OC(C)(C)C)NC(=O)[C@@H]1C3` [Ko143], for which the “internalization of MX when co-administered with inhibitor” value in the series with HeLa cells [3] (1 μM Ko143 with MX) is given as “considerably high number of cells that internalized MX”.

`O=c1cc(-c2ccccc2)oc2cc(O)cc(O)c12` [chrysin]: the “effect of coadministered flavonoid on the pharmacokinetics of topotecan” value in [1] is “no significant effects”. For the same compound, the “inhibition of human BCRP” value at human BCRP [2] is “potent inhibitors”. Moreover, the “inhibition of mouse BCRP” value with mouse BCRP is on record as “weak inhibitors”.

For `O=C1c2c(O)ccc(O)c2C(=O)c2c(NCCNCCO)ccc(NCCNCCO)c21` [mitoxantrone], the IC50 in the series on HeLa cells [4] (Homo sapiens, in the presence of Ko143 (1 μM)) is 0.62 µM; in the series with HeLa cells [4] (Homo sapiens, HeLa, mitoxantrone alone) it was 5.83 µM; in the series on HeLa cells [4] (Homo sapiens, HeLa, with 1 μM quercetin) it was 1.13 µM; in the series with HeLa cells [4] (Homo sapiens, HeLa, with 100 μM quercetin) it was 0.478 µM; in the series on HeLa cells [4] (with 100 μM quercetin), 0.48 µM. The “IC50 of mitoxantrone as percentage of the control value (mitoxantrone alone)” value with HeLa cells [4] (with 1 μM quercetin) is 19.3%; in the series on HeLa cells [4] (with 100 μM quercetin), 8.2% and 8.23%. Besides, the “percentage of cells with a significant uptake of MX, higher than at 2 h of treatment with MX alone” value in the series on HeLa cells [3] (4 h) worked out at 17.2%; in the series with HeLa cells [3] (6 h) it was 27.1%. Besides, the “cellular uptake of MX, higher than at 2 h of treatment with MX alone” value is 30.2% in the series on HeLa cells [3] (1 μM MX with 1 μM quercetin, 4 h); 35.9% in the series with HeLa cells [3] (1 μM MX with 1 μM quercetin, 6 h); 45.3% in the series on HeLa cells [3] (1 μM MX with 100 μM quercetin, 4 h); 67.4% with HeLa cells [3] (1 μM MX with 100 μM quercetin, 6 h).

In the case of `COc1cc2nc(N3CCN(C(=O)c4ccco4)CC3)nc(N)c2cc1OC` [prazosin, Prazosin], on human BCRP [5], the Km was 128 µM.

On to `O=c1c(O)c(-c2ccc(O)c(O)c2)oc2cc(O)cc(O)c12` [quercetin, Quercetin], for which, in the series on BCRP [6], the half-inhibitory concentration (IC50) is 6.9 µM. On human BCRP [7], half-maximal inhibition (IC50) was put at 4.22 µM and the inhibition constant (Ki) stood at 3.91 µM. The half-inhibitory concentration (IC50) in the series with BCRP [8] is 7.6 µM. In series [9], the maximum concentration (Cmax) was 210 ng/mL and the oral bioavailability was 5.3%.

In the series “in vivo” (male, SD, po, 2 mg/kg), `O=C(O)c1cc(/N=N/c2ccc(S(=O)(=O)Nc3ccccn3)cc2)ccc1O` [sulfasalazine] registered an AUC8h of 44500 ± 11800 ng·min/mL, a CL/F of 33.2 ± 10.2 mL/min/kg, a Cmax of 179 ± 23.0 ng/mL and a t1/2 of 4.03 ± 1.34 h. Besides, the tmax in “in vivo” (male, SD, po, 2 mg/kg) was 0.375 ± 0.145 h. In addition, the area under the curve AUC(0-t) in the series “in vivo” (male, SD, po, 2 mg/kg, AUC8h) is 428 ng·h/mL. Further, in the series “in vivo” (male, SD, po, 2 mg/kg, CL/F), the CL/F came out at 52.5 ± 33.5 mL/min/kg. For the same compound, the concentration in “in vivo” (male, SD, po, 2 mg/kg, Cmax) peaked (Cmax) at 122 ± 23.2 ng/mL. In addition, the half-life in “in vivo” (male, SD, po, 2 mg/kg, t1/2) was determined as 6.38 ± 1.85 h. The compound also showed a tmax in “in vivo” (male, SD, po, 2 mg/kg, tmax) of 0.5 h. In “in vivo”, the “change in the elimination half-life (t1/2) of sulfasalazine, quercetin pretreatment vs control” value is on record as “no significant change”. The “increase in absorption (AUC8h, Cmax) of sulfasalazine in knockout rats” value in series [10] was “approximately 20 fold”.

For orientation: IC50 means the concentration that gives 50% inhibition. In general, Km refers to the concentration of substrate that gives half-maximal velocity. Usually Ki stands for the equilibrium dissociation constant of an inhibitor or competing ligand from its target. Lower therefore signals tighter binding. A word on the Cmax: it is the maximum level reached in the sampled fluid or tissue. Broadly, the CL/F is the apparent clearance, not corrected for the fraction that reaches the circulation. A word on the AUC(0-t): it is exposure summed from dosing to a finite time, without extrapolation to infinity. Lower therefore signals low exposure. What is called half-life is how long it takes for the measured level to halve. Low readings indicate rapid decline, high ones slow decline.
